The numbers were not newly measured in patent US8759364B2, “Methods of treating bone mass diseases” (The Trustees of Columbia University in the City of New York, priority 2008, dated 2014), which cites them from elsewhere.

Structures are written as SMILES.

The conditions of series [1]: in vivo; cited from earlier work.
Series [2] deals with Serotonin levels in the small intestine. Conditions: mice, twice per day over 3-4 days, about 30-90 mg/kg; after six consecutive doses; cited from earlier work.
The test system of another series is brain-derived serotonin. Particulars: mice, cited from earlier work.
For a further series, the target named is T1, TPH2 (Homo sapiens, UniProt Q8IWU9).
T1 sequence (Q8IWU9 1-490): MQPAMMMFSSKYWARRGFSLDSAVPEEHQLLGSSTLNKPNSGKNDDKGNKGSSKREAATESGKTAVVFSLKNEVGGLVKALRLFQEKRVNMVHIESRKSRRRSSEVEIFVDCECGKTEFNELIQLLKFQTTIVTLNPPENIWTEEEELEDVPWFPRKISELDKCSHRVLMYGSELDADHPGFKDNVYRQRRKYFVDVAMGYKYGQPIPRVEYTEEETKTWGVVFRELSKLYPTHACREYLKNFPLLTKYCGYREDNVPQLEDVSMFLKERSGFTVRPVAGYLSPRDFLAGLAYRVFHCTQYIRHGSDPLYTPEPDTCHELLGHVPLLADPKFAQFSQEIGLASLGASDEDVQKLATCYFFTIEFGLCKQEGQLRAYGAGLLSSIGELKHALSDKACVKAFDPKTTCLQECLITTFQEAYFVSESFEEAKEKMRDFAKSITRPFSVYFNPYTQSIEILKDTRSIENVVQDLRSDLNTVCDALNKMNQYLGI
Conditions: cited from earlier work.

Series [3] relates to serotonin in the GI tract. Particulars: cited from earlier work.
For another series, the system named is brain serotonin levels. Conditions: in the amounts administered to mice; cited from earlier work.
For series [4] the following is noted: oral, single dose 250 mg to 2,000 mg/day and multiple doses 250-1,000 mg/day; all dose levels; cited from earlier work.

Turning to `CC(C)NCC(O)COc1cccc2[nH]ccc12` (stereo not drawn) [Pindolol, pindolol], the “absorption from the GI tract” value in series [1] was “beta blocker; rapidly and well”.

As to `Nc1nc(OC(c2ccc(-c3cccc(F)c3)cc2)C(F)(F)F)cc(-c2ccc(C[C@H](N)C(=O)O)cc2)n1` (stereo partly drawn) [LP-533401], in series [2], the “Serotonin levels in the small intestine” value is “significantly lowered”. The brain-derived serotonin entry in the series on brain-derived serotonin (twice per day over 3-4 days, about 30-90 mg/kg) was “unchanged”. Also, in the series with brain-derived serotonin, the “crossing of the blood-brain barrier in vivo” value is “did not cross”. The “inhibition of TPH2 compared with TPH1” value on TPH2 is “as effectively as”. The “serotonin in the GI tract reduced to fraction of normal levels” value in series [3] (135 mg/kg, po, qd) is given as “less than ⅔”. Besides, the “dose response of GI tract serotonin reduction” value in series [3] (mouse, in vivo) was “dose response curve”. In the series with brain serotonin levels, the brain serotonin levels entry was “not affected”. For the same molecule, the adverse events result in series [4] is on record as “Infrequent”.
